Measured values taken from PubChem BioAssay AID328 (DTP/NCI, 2004).
Several values for one entry are separate records, joined by “and”; a condition that tells them apart may be missing. Equal entries are not always repeated. Inconclusive results and toxic doses are left out. The calls were made as follows: active = survival T/C of 150% or more; inactive = T/C below 125% in these data.

Tested on: BDF1 mice, P388 leukemia ip, median survival T/C
Experiment: NCI In Vivo Anticancer Drug Screen. Data for tumor model P388 Leukemia (intraperitoneal) in B6D2F1 (BDF1) mice
Details: endpoint: median survival time, higher = longer survival
How it was run: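 Antitumour effect was judged in vivo: survival in drug-treated mice, normalised to that of vehicle-dosed controls, gives the reported T/C.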

[1] = dose: 100.0 mg/kg/injection, schedule: Q01DX009 (ip), vehicle: saline
[2] = dose: 200.0 mg/kg/injection, schedule: Q01DX009 (ip), vehicle: saline
[3] = dose: 100.0 mg/kg/injection, schedule: Q04DX003 (ip), vehicle: saline
[4] = dose: 200.0 mg/kg/injection, schedule: Q04DX003 (ip), vehicle: saline
[5] = dose: 100.0 mg/kg/injection, schedule: Q01DX009 (ip), vehicle: Klucel (hydroxypropylcellulose) (HPC)
[6] = dose: 100.0 mg/kg/injection, schedule: Q04DX003 (ip), vehicle: Klucel (hydroxypropylcellulose) (HPC)
[7] = dose: 200.0 mg/kg/injection, schedule: Q04DX003 (ip), vehicle: Klucel (hydroxypropylcellulose) (HPC)
[8] = dose: 400.0 mg/kg/injection, schedule: Q04DX003 (ip), vehicle: Klucel (hydroxypropylcellulose) (HPC)
[9] = dose: 6.25 mg/kg/injection, schedule: Q01DX009 (ip), vehicle: saline

Measured: T/C

O=S(=O)(CS(=O)(=O)C(F)(F)C(F)(F)C(F)(F)C(F)(F)F)C(F)(F)C(F)(F)C(F)(F)C(F)(F)F
inactive: dose: 50.0 mg/kg/injection, schedule: Q01DX009 (ip), vehicle: saline 114 % of control | [1] 114 % of control | [2] 106 % of control

CCCCCCCCOB(OCCCCCCCC)OCCCCCCCC
inactive: dose: 25.0 mg/kg/injection, schedule: Q04DX003 (ip), vehicle: saline with Tween-80 91 % of control | dose: 50.0 mg/kg/injection, schedule: Q04DX003 (ip), vehicle: saline with Tween-80 100 % of control | dose: 100.0 mg/kg/injection, schedule: Q04DX003 (ip), vehicle: saline with Tween-80 91 % of control and 100 % of control

COC1C(OC(=O)/C=C/C=C/C=C/C=C\C(=O)O)CCC2(CO2)C1C1(C)OC1CC=C(C)C (configuration not stated)
inactive: dose: 50.0 mg/kg/injection, schedule: Q04DX003 (ip), vehicle: saline 110 % of control | [3] 105 % of control | [4] 110 % of control

O=CNNc1ccc([N+](=O)[O-])cc1
inactive: [5] 90 % of control | [6] 105 % of control | dose: 200.0 mg/kg/injection, schedule: Q01DX009 (ip), vehicle: Klucel (hydroxypropylcellulose) (HPC) 100 % of control | [7] 100 % of control | dose: 400.0 mg/kg/injection, schedule: Q01DX009 (ip), vehicle: Klucel (hydroxypropylcellulose) (HPC) 104 % of control | [8] 105 % of control

c1ccc(OCc2ccc(COc3ccccc3)cc2)cc1
inactive: dose: 6.25 mg/kg/injection, schedule: Q01DX009 (ip), vehicle: Klucel (hydroxypropylcellulose) (HPC) 96 % of control | dose: 12.5 mg/kg/injection, schedule: Q01DX009 (ip), vehicle: Klucel (hydroxypropylcellulose) (HPC) 96 % of control | dose: 25.0 mg/kg/injection, schedule: Q01DX009 (ip), vehicle: Klucel (hydroxypropylcellulose) (HPC) 92 % of control and 96 % of control | dose: 25.0 mg/kg/injection, schedule: Q04DX003 (ip), vehicle: Klucel (hydroxypropylcellulose) (HPC) 100 % of control | dose: 50.0 mg/kg/injection, schedule: Q04DX003 (ip), vehicle: Klucel (hydroxypropylcellulose) (HPC) 104 % of control | [5] 92 % of control | [6] 100 % of control

C1CCC2[N-]CC3CCCCC3[N-]CC3CCCCC3[N-]CC3CCCCC3[N-]CC2C1.[Cu] (configuration not stated)
inactive: dose: 0.39 mg/kg/injection, schedule: Q01DX009 (ip), vehicle: saline 107 % of control | dose: 0.78 mg/kg/injection, schedule: Q01DX009 (ip), vehicle: saline 113 % of control | [9] 96 % of control
active: dose: 3.12 mg/kg/injection, schedule: Q01DX009 (ip), vehicle: saline 166 % of control

Nc1ccc(OCc2ccc(C(=O)Nc3cccc(S(=O)(=O)F)c3)cc2)c(Cl)c1
inactive: dose: 100.0 mg/kg/injection, schedule: Q01DX009 (ip), vehicle: saline with Tween-80 91 % of control | [6] 100 % of control | dose: 200.0 mg/kg/injection, schedule: Q01DX009 (ip), vehicle: saline with Tween-80 91 % of control | [7] 100 % of control | dose: 400.0 mg/kg/injection, schedule: Q01DX009 (ip), vehicle: saline with Tween-80 100 % of control | [8] 100 % of control

CC1(C)N=C(N)N=C(N)N1c1ccc(CNC(=O)Nc2ccc(S(=O)(=O)F)cc2)cc1
active: [3] 150 % of control | dose: 132.0 mg/kg/injection, schedule: Q04DX003 (ip), vehicle: saline 181 % of control and 190 % of control | [4] 150 % of control and 177 % of control and 205 % of control | dose: 300.0 mg/kg/injection, schedule: Q04DX003 (ip), vehicle: saline 230 % of control and 154 % of control | dose: 400.0 mg/kg/injection, schedule: Q04DX003 (ip), vehicle: saline 163 % of control
inactive: [1] 115 % of control | [2] 100 % of control

CC(C)(C)c1cc(Br)c(N)c(C(O)(C(F)(F)F)C(F)(F)F)c1
inactive: dose: 100.0 mg/kg/injection, schedule: Q01DX001 (ip), vehicle: saline with Tween-80 105 % of control | dose: 200.0 mg/kg/injection, schedule: Q01DX001 (ip), vehicle: saline with Tween-80 109 % of control | dose: 400.0 mg/kg/injection, schedule: Q01DX001 (ip), vehicle: saline with Tween-80 111 % of control

CCCCCCCCCCCC[N+](C)(C)CCC[N+](C)(C)CCCCCCCCCCCC
inactive: [9] 109 % of control | dose: 12.5 mg/kg/injection, schedule: Q01DX009 (ip), vehicle: saline 116 % of control

C[CH2][Sn]([c]1ccccc1)([c]1ccccc1)[c]1ccccc1
inactive: dose: 12.5 mg/kg/injection, schedule: Q01DX009 (ip), vehicle: saline with Tween-80 104 % of control | dose: 25.0 mg/kg/injection, schedule: Q01DX009 (ip), vehicle: saline with Tween-80 109 % of control | dose: 50.0 mg/kg/injection, schedule: Q01DX009 (ip), vehicle: saline with Tween-80 104 % of control
